From US5663172A, “Preventive agent for platelet aggregation” (Nippon Soda Co., Ltd., priority 1992, dated 1997) come the findings set out here.

Data set [1] deals with platelet aggregation (rabbit platelet rich plasma). As to the kind of experiment: Preventive effect on platelet aggregation in vitro (aggregometer; rabbit platelet rich plasma; ADP or collagen induced). To be noted: for EC50: Oryctolagus cuniculus, Platelet, rabbit PRP. It is filed as cell-based, rabbits. As to the method: Preventive Effect on Platelet Aggregation The preventive effect on platelet aggregation of the compounds and the complexes of the present invention was evaluated in vitro based on the preventive effect on the platelet aggregation induced by adenosine diphosphate (ADP) and collagen, which is determined by using an aggregometer, Hematracer PAT-606 produced by Nicho Bioscience Co., Ltd. Blood collected from rabbits containing 0.38% citric acid was centrifuged at 1100 rpm for 15 min. to obtain platelet rich plasm (PRP). The PRP obtained was then centrifuged at 3500 rpm for 10 min., and the supernatant obtained was provided as platelet poor plasma (PPP). PRP was diluted with PPP to adjust the concentration of platelets in PRP to a range of from 2×10^8 /ml to 5×10^8 ml. .left brkt-top.Either ADP at the final concentration of 10 μM or collagen at the final concentration of 20 μg/ml, which was prepared with SKF buffer solution (Collagen reagent Horm, Hormon Chemie) was used for the induction of platelet aggregation. .right brkt-bot. Test compound was dissolved into dimethyl sulfoxide (DMSO), then 0.5 ml of PRP prepared as described above was added to 0.5 μl of the solution, then mixed for about 3 min. Then, 0.2 ml portion was taken out of the mixture, and either ADP solution or collagen solution in an amount of 22 μl was added thereto to proceed to the measurement of platelet aggregation for 10 min. by using an aggregometer. The preventive effect on platelet aggregation was determined in the prevention rate (%) in respect to the aggregation rate in the check plot. The rate of prevention onto platelet aggregation was calculated according to the following equation. Platelet Aggregation Prevention Rate (%)=(Maximum Aggregation Rate(%) of Platelet when only DMSO is added-Maximum Aggregation Rate(%) of Platelet when Test Compound and DMSO are added).div.Maximum Aggregation Rate(%) of Platelet when only DMSO is added Based on the dose-response curve obtained according to the equation described above, EC50, a dose attaining 50% prevention of platelet aggregation, was determined.

The subject of the next data set is Mice. As to the kind of experiment: Preventive effect on thrombus-causing death (collagen + epinephylline i.v. in mice). To be noted: for ED50: Mus musculus, po, 0.5 h, read-out: ED50 for preventing Thrombus-causing Death. Format: in vivo. How it is done: Preventive Effect on Thrombus-causing Death
Mice in a state without feeding for a night were orally administrated with a test compound, and then injected intravenously with collagen in an amount of 400 μg/Kg and epinephylline in an amount of 50 μg/Kg through their tail at a fixed speed in accordance with the method of DiMinno and Silver (DiMinno, G. and Silver, M. J., J. Pharmacol. Exp. Thor., 225, 57-60, 1983). After 30 min., the mice were checked to determine their survival rate and to calculate EC50, a dose attaining 50% prevention of the death of the mice. The collagen and epinephylline were used in a form of a mixed solution prepared with SKF buffer solution and saline, respectively. Test compounds were administrated to mice after preparing each suspensions of the compounds in 1% aqueous solution of gum arabic.

Data set [2] has as its target T1, Cyclic guanosine monophosphate inhibiting-type cyclic adenosine monophosphate phosphodiesterase (cAMP-PDE) (Canis lupus familiaris, UniProt A0A8I3NYE0).
T1 construct: derived from canine platelets was prepared according to the method of Thompson et. al; from tissue; host or cells: canine platelets (DEAE-cellulose fraction)
T1 sequence (A0A8I3NYE0 1-1135): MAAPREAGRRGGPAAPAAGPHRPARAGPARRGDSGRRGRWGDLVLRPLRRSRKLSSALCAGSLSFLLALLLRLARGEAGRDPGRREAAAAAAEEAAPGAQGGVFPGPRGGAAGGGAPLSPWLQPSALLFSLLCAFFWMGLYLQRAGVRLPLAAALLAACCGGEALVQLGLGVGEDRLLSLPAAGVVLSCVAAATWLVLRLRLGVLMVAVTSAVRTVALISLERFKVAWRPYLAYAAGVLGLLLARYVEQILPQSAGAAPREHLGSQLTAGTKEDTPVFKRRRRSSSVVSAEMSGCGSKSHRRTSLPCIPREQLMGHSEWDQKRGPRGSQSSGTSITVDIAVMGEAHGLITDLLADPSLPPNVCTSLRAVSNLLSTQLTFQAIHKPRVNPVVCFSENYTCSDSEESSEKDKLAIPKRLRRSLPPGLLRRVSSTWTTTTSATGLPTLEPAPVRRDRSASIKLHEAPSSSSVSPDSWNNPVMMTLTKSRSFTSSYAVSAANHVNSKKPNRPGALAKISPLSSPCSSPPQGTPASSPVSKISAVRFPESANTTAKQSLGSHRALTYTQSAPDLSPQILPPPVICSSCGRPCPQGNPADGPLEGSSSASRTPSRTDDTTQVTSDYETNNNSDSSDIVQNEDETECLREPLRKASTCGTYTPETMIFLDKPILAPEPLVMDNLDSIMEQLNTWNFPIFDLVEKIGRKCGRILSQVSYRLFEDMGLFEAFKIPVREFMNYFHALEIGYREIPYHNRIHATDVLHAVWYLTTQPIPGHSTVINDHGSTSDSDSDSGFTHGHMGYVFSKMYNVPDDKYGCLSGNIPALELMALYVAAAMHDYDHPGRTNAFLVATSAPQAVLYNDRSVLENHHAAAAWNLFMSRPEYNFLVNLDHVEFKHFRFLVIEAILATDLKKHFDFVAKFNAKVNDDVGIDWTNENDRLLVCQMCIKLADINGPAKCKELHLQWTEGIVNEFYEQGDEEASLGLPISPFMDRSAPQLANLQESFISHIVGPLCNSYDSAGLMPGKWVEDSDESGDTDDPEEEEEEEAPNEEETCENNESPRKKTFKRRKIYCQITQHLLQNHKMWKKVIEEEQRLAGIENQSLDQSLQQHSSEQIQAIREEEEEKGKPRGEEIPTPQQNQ
Briefly: Inhibitory effect on phosphodiesterase (cGMP inhibiting-type cAMP-PDE from canine platelets). It is filed as biochemical. To be noted: for IC50: canine platelets, 1 μM [3H]-cAMP.

Data set [3] has as its system Left Cardiac Ventricle (dp/dt max), heart rate, blood pressure. Briefly: Cardiotonic effect in anesthetized Beagle dogs (dp/dt max, heart rate, blood pressure). Format: in vivo. To be noted: for ED50: Canis lupus familiaris, cumulative 0.001 to 0.3 mg/0.1 ml/Kg, read-out: ED50 for dp/dt max in Left Cardiac Ventricle (dose attaining 50% increase). As to the method: Male and female Beagle dogs in a weight range of from 10 to 15 Kg were anesthetized to provide them for the test. The dogs were anesthetized by intravenous injection with sodium pentobarbital at a dose of […], and the anesthetized condition was maintained by subsequent intravenous injection with sodium pentobarbital at a dose of 4 mg/Kg/hr. A cannula for drip infusion either of physiological saline solution or anesthetic injection was inserted into a femoral vein, and a cannula for measuring arterial blood pressure was inserted into a femoral artery via a pressure transducer. Heart rate was recorded by conducting R-wave of the electrocardiogram (ECG) to a heart beat counter. Secondary induction from electrocardiogram was measured via a bioelectricity-adapted amplifier. Internal pressure of left cardiac ventricle was measured by inserting a catheter-type pressure transducer from a left carotid into left cardiac ventricle. Differential values by time of the internal pressure in left cardiac ventricle (dp/dt max) were measured by conducting the internal pressure in left cardiac ventricle to a derivative amplifier. The test compound was cummulatively administrated at a rate of from 0.001 to 0.3 mg/0.1 ml/Kg though a cannula inserted into a femoral vein. Based on a dose-response curve obtained, ED50, a dose attaining 50% increase of the dp/dt max in left cardiac ventricle, was determined.

Data set [4] has the same test system. The data set is described as above. Format: in vivo. To be noted: i.v. at 0.3 mg/kg (footnote *).
Setting [5] is: ADP at final concentration 10 μM, read-out: EC50 for Platelet Aggregation Prevention, ADP.
The mark [6] stands for this setting: collagen at final concentration 20 μg/ml, read-out: EC50 for Platelet Aggregation Prevention, Collagen.
Where [7] appears, read: i.v., anesthetized Beagle dogs, dose not stated.

Where two headings read alike, the source gives them in different places.

The EC50 is the concentration at which the effect is half-maximal. As usually defined, the IC50 is the midpoint of a concentration-inhibition curve.

`O=C1CCc2cc(OCCCCc3nnnn3C3CCCCC3)ccc2N1` [Cilostazol, reference compound]: the EC50 in data set [1] (setting [5]) is 10.2 µM; in data set [1] (setting [6]), 4.3 µM. Also, the ED50 was found to be 300 mg/kg in the data set on Mice and 0.2 mg/kg in data set [3] (iv, anesthetized Beagle dogs). The molecule also displayed an IC50 in data set [2] of 0.6 µM. In addition, the “% Change in Blood pressure” value in data set [3] (dog, in vivo, iv) was -2.1%. For the same molecule, the “% Change in Heart Rate” value in data set [3] (dog, in vivo, iv) turned out to be 15%.
For the molecule `CCCC1=C(Nc2ccc(C3=NNC(=O)CC3)cc2)CCCC1=O` [Compound No. 1, 4,5-dihydro-6-[4-[(2-propyl-3-oxo-1-cyclohexenyl)amino]phenyl]-3(2H)-pyridazine], the EC50 in data set [1] (setting [5]) is 29.8 µM. Also, the concentration for a half-maximal effect (EC50) in data set [1] (setting [6]) was 9.3 µM. The ED50 in the data set on Mice amounted to 5 mg/kg. The molecule further gave an IC50 in data set [2] of 0.43 µM. Moreover, the ED50 in data set [3] (iv, anesthetized Beagle dogs) is over 0.3 mg/kg. Besides, in data set [4], the “% Change in Blood pressure” value is on record as -8.6%, the “% Change in Heart Rate” value is 5.2% and the “% Change in dp/dt max in Left Cardiac Ventricle” value is given as 32%.
On to `CCCC1=C(Nc2ccc(C3=NNC(=O)CC3C)cc2)CCCC1=O` (stereo not drawn) [Compound No. 2, 4,5-dihydro-5-methyl-6-[4-[(2-propyl-3-oxo-1-cyclohexenyl)amino]phenyl]-3(2H)-pyridazinone], for which the EC50 was determined as 4.5 µM in data set [1] (setting [5]) and 3.6 µM in data set [1] (setting [6]). The “Effect in Test Example 1 (platelet aggregation) compared with compound No. 2” value in data set [1] (in words) is recorded as “as much as the effects given by the compound No. 2”. Moreover, the ED50 in the data set with Mice was 1.7 mg/kg; in data set [3] (iv, anesthetized Beagle dogs), 0.052 mg/kg. The “Effect in Test Example 2 (thrombus-causing death) compared with compound No. 2” value with Mice (in words) was “as much as the effects given by the compound No. 2”. The IC50 in data set [2] came out at 0.088 µM. The “Effect in Test Example 3 (phosphodiesterase) compared with compound No. 2” value in data set [2] (in words) was “as much as the effects given by the compound No. 2”. The “% Change in Blood pressure” value in data set [3] (setting [7]) is listed as -10.0%. Also, the “% Change in Heart Rate” value in data set [3] (setting [7]) is 9.8%. Also, the “Effect in Test Example 4 (cardiotonic effect) compared with compound No. 2” value in data set [3] (in words) is “as much as the effects given by the compound No. 2”.
With `CCCC1=C(Nc2ccc(C3=NNC(=O)CC3)cc2)CCC1=O` [compound 3], the EC50 in data set [1] (setting [5]) was found to be 22.8 µM; in data set [1] (setting [6]) it was 12.9 µM. Moreover, the ED50 came to 6.8 mg/kg with Mice and 0.1 mg/kg in data set [3] (iv, anesthetized Beagle dogs). The molecule further yielded an IC50 in data set [2] of 0.37 µM. The “% Change in Blood pressure” value in data set [3] (setting [7]) is -10.5%. In addition, the “% Change in Heart Rate” value in data set [3] (setting [7]) was found to be 7.5%.
